Experimental data published in patent publication US9115064B2, “N-hydroxylsulfonamide derivatives as new physiologically useful nitroxyl donors” (The Johns Hopkins University, priority 2007, dated 2015).

Test: HNO production via N2O quantification (GC headspace analysis, Angeli's salt as benchmark)
Type: physicochemical
Conditions: pH 7.4 in PBS buffer at 37° C.; for Nitrous oxide evolved as % of Angelis salt: relative to Angeli's salt

SMILES	% moles N2O/moles of sample	Nitrous oxide evolved as % of Angelis salt
O=C(O)c1cccc(S(=O)(=O)NO)c1 [Compound 2, 3-Hydroxysulfamoyl-benzoic acid]	19%	27%
[Na+].[Na+].[O-][N+]([O-])=NO [Angeli's Salt, sodium dioxotrinitrate, reference compound]	70.5%	100%
COC(=O)c1ccccc1S(=O)(=O)NO [Compound 1, 2-Hydroxysulfamoyl-benzoic acid methyl ester]	30.5%	43%
CN(C)C(=O)c1ccc(Br)c(S(=O)(=O)NO)c1 [Compound 6, 4-Bromo-3-(hydroxysulfamoyl)-N,N-dimethylbenzamide]	81%	116%
O=C(O)c1ccc(Cl)c(S(=O)(=O)NO)c1 [Compound 3, 4-Chloro-3-hydroxysulfamoyl-benzoic acid]	81.5%	116%
O=C(OCCN1CCOCC1)c1ccc(Cl)c(S(=O)(=O)NO)c1 [Compound 9, -(Morpholin-4-yl)ethyl 4-chloro-3-(hydroxysulfamoyl)benzoate]	65%	93%
O=C(c1cc(Br)c(S(=O)(=O)NO)s1)N1CCOCC1 [Compound 98, 3-Bromo-N-hydroxy-5-(morpholin-4-ylcarbonyl)thiophene-2-sulfonamide]	81%	116%
O=C(NCCN1CCOCC1)c1cc(Br)c(S(=O)(=O)NO)s1 [Compound 97, 4-Bromo-5-(hydroxysulfamoyl)-N-[2-(morpholin-4-yl)ethyl]thiophene-2-carboxamide]	92%	131%
O=S(=O)(NO)c1ccccc1S(=O)(=O)N1CCOCC1 [Compound 8, N-Hydroxy-2-(morpholin-4-ylsulfonyl)benzene sulfonamide]	86%	126%
O=C(c1ccc(Br)c(S(=O)(=O)NO)c1)N1CCOCC1 [Compound 5, -Bromo-N-hydroxy-5-(morpholine-4-carbonyl)-benzenesulfonamide]	80.5%	115%
O=C(O)c1ccc(Br)c(S(=O)(=O)NO)c1 [Compound 4, 4-Bromo-3-hydroxysulfamoyl-benzoic acid]	82%	117%
CN(C)C(=O)c1ccc(Cl)c(S(=O)(=O)NO)c1 [Compound 7, 4-Chloro-3-(hydroxysulfamoyl)-N,N-dimethylbenzamide]	85%	122%
